Measurements taken from patent US6472391B2, “Nitrogen-containing heterocyclic compounds” (Millennium Pharmaceuticals, Inc., priority 1996, dated 2002).

How the values were obtained:
human β-PDGF receptor = target: T1, human β-PDGF receptor (Homo sapiens, UniProt P09619); assay: Inhibitory effect on phosphorylation of PDGF receptor; assay type: cell-based; details: CHO cells expressing human β-PDGF receptor
T1 construct: expressed in transfected cells; host or cells: Chinese hamster ovary cells (CHO)
Protocol: Test Example 1 Inhibitory Effect on Phosphorylation of PDGF Receptor
The test was carried out according to the method described in the literature [Dah-Shuhn et al., J. Biol. Chem., 266, 413-418 (1991)], using Chinese hamster ovary cells (CHO) wherein human β-PDGF receptor cDNA was introduced and expressed.

T1 sequence (P09619 33-1106): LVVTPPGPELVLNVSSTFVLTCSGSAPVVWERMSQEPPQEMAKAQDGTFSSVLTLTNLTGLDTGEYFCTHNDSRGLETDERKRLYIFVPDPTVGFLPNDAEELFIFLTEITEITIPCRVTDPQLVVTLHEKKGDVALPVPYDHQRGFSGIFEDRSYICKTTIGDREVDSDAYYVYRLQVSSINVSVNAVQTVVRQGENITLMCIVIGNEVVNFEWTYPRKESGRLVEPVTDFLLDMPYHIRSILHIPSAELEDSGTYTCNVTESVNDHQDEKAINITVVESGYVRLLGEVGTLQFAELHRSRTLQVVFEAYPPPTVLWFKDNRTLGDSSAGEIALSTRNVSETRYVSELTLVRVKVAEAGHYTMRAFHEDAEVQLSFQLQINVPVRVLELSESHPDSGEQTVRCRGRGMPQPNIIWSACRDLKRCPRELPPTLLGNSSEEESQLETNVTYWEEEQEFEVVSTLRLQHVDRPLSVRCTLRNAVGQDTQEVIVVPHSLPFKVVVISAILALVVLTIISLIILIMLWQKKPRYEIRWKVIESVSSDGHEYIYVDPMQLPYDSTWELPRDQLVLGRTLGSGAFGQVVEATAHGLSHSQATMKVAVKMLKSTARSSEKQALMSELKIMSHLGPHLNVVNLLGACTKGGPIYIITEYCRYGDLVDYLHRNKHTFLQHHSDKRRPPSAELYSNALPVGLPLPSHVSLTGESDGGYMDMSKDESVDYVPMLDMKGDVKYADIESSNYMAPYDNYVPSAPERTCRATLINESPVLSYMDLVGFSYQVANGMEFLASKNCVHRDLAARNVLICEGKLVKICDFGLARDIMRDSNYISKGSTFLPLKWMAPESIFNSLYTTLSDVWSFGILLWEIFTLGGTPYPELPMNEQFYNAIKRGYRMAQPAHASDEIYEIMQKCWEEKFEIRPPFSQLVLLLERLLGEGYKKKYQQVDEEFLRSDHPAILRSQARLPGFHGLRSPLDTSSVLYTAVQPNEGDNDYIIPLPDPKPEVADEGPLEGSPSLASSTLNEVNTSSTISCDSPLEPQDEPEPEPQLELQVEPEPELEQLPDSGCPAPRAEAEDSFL

SMILES | IC50 (human β-PDGF receptor) [nM] | melting point [°C]
COc1cc2ncnc(N3CCN(C(=O)NCc4ccc(OC(F)(F)F)cc4)CC3)c2cc1OC [Compound 203, 4-(6,7-Dimethoxy-4-quinazolinyl)-N-(4-trifluoromethoxybenzyl)-1-piperazinecarboxamide] | 1390 | 176 to 177
COc1cc2ncnc(N3C[C@@H](C)N(C(=S)NCc4ccccc4)[C@@H](C)C3)c2cc1OC [Compound 433, N-Benzyl-4-(6,7-dimethoxy-4-quinazolinyl)-(cis-2,6-dimethyl)-1-piperazinethiocarboxamide] | 380 | 165 to 166
Cc1ccc2c(N3CCN(C(=O)Nc4ccc(Oc5ccccc5)cc4)CC3)ncnc2c1 [Compound 312, 4-(7-Methyl-4-quinazolinyl)-N-(4-phenoxyphenyl)-1-piperazinecarboxamide] | 260 | 184 to 185
COc1cc2c(N3CCN(C(=O)Nc4ccc(Oc5ccccc5)cc4)CC3)ncnc2cc1C [Compound 333, 4-(6-Methoxy-7-methyl-4-quinazolinyl)-N-(4-phenoxyphenyl)-1-piperazinecarboxamide] |  | 188 to 189
COc1cc2ncnc(N3CCN(C(=O)NS(=O)(=O)c4ccccc4)CC3)c2cc1OC [Compound 5, N-Benzenesulfonyl-4-(6,7-dimethoxy-4-quinazolinyl)-1-piperazinecarboxamide] |  | 98 to 100
CCn1c(=O)n(CC)c2cc3c(N4CCN(C(=O)Nc5ccc(Oc6ccccc6)cc5)CC4)nnc(Cl)c3cc21 [Compound 421, 4-(5-Chloro-1,3-diethyl-1,3-dihydro-2-oxo-2H-imidazo[4,5-g]phthalazin-8-yl)-N-(4-phenoxyphenyl)-1-piperazinecarboxamide] |  | 172 to 173
COc1cc2ccnc(N3CCN(C(=S)NCc4ccccc4)CC3)c2cc1OC [Compound 424, N-Benzyl-4-(6,7-dimethoxy-1-isoquinolyl)-1-piperazinethiocarboxamide] |  | 171 to 172
COc1cc2ncnc(N3CCN(C(=S)NC(=O)C=Cc4ccccc4)CC3)c2cc1OC [Compound 143, N-Cinnamoyl-4-(6,7-dimethoxy-4-quinazolinyl)-1-piperazinethiocarboxamide] |  | 184 to 186
O=C(Nc1ccc([N+](=O)[O-])cc1)N1CCN(c2ncnc3cc4ccccc4cc23)CC1 [Compound 364, 4-(4-Benzo[g]quinazolinyl)-N-(4-nitrophenyl)-1-piperazinecarboxamide] |  | 272 to 275
COc1cc2ncnc(N3CCN(C(=O)NC(=O)c4ccccc4)CC3)c2cc1OC [Compound 4, N-Benzoyl-4-(6,7-dimethoxy-4-quinazolinyl)-1-piperazinecarboxamide] |  | 122 to 124
CCOc1cc2ncnc(N3CCN(C(=O)Nc4ccc(C#N)cc4)CC3)c2cc1OCC [Compound 352, N-(4-Cyanophenyl)-4-(6,7-diethoxy-4-quinazolinyl)-1-piperazinecarboxamide] |  | 186 to 187
N#Cc1ccc(NC(=O)N2CCN(c3ncnc4cc5c(cc34)OCO5)CC2)cc1 [Compound 369, N-(4-Cyanophenyl)-4-(6,7-methylenedioxy-4-quinazolinyl)-1-piperazinecarboxamide] |  | 220 to 222
COc1cc2ncnc(N3CCN(C(=O)Nc4ccc([N+](=O)[O-])cc4Cl)CC3)c2cc1OC [Compound 82, N-(2-Chloro-4-nitrophenyl)-4-(6,7-dimethoxy-4-quinazolinyl)-1-piperazinecarboxamide] |  | 194 to 195
CCn1c(=O)n(CC)c2cc3c(N4CCN(C(=O)Nc5ccc(Oc6ccccc6)cc5)CC4)ncnc3cc21 [Compound 122, 4-(1,3-Diethyl-1,3-dihydro-2-oxo-2H-imidazo[4,5-g]quinazolin-8-yl)-N-(4-phenoxyphenyl)-1-piperazinecarboxamide] |  | 168 to 169
O=C(Nc1ccc(Oc2ccccc2)cc1)N1CCN(c2ncnc3cc4c(cc23)OCCO4)CC1 [Compound 372, 4-(6,7-Ethylenedioxy-4-quinazolinyl)-N-(4-phenoxyphenyl)-1-piperazinecarboxamide] |  | 227 to 228
COc1cc2ncnc(N3CCN(C(=S)NCC(=O)c4ccccc4)CC3)c2cc1OC [Compound 445, 4-(6,7-Dimethoxy-4-quinazolinyl)-N-phenacyl-1-piperazinethiocarboxamide] |  | 99 to 100
COc1ccc2ncnc(N3CCN(C(=O)Nc4ccc([N+](=O)[O-])cc4)CC3)c2c1 [Compound 308, 4-(6-Methoxy-4-quinazolinyl)-N-(4-nitrophenyl)-1-piperazinecarboxamide] |  | 228 to 229
O=C(Nc1ccc(Oc2ccccc2)cc1)N1CCN(c2ccnc3cc(C(F)(F)F)ccc23)CC1 [Compound 404, N-(4-Phenoxyphenyl)-4-(7-trifluoromethyl-4-quinolyl)-1-piperazinecarboxamide] |  | 163 to 164

The remaining lines, values ahead:

IC50 (human β-PDGF receptor) [nM] | melting point [°C] | SMILES
1000 | 106 to 109 | COc1cc2ncnc(N3CCN(C(=S)NCCc4ccc(Cl)cc4)CC3)c2cc1OC [Compound 180, N-[2-(4-Chlorophenyl)ethyl]-4-(6,7-dimethoxy-4-quinazolinyl)-1-piperazinethiocarboxamide]
660 | 213 to 215 | COc1cc2ncnc(N3CCN(C(=O)Nc4ccoc4)CC3)c2cc1OC [Compound 255, 4-(6,7-Dimethoxy-4-quinazolinyl)-N-(3-furyl)-1-piperazinecarboxamide]
670 | 207 to 210 | COc1cc2ncnc(N3CCN(C(=S)Nc4ccc5c(c4)CCC5)CC3)c2cc1OC [Compound 9, 4-(6,7-Dimethoxy-4-quinazolinyl)-N-(5-indanyl)-1-piperazinethiocarboxamide]
400 | 192 to 193 | COc1cc2ncnc(N3CCN(C(=S)Nc4cccc(C(C)=O)c4)CC3)c2cc1OC [Compound 241, N-(3-Acetylphenyl)-4-(6,7-dimethoxy-4-quinazolinyl)-1-piperazinethiocarboxamide]
770 | 117 to 119 | COc1cc2ncnc(N3CCN(C(=S)NCc4cccc(Cl)c4)CC3)c2cc1OC [Compound 177, N-(3-Chlorobenzyl)-4-(6,7-dimethoxy-4-quinazolinyl)-1-piperazinethiocarboxamide]
 | 131 to 132 | COc1cc2ncnc(N3CCN(C(=S)NCc4ccc(OC(F)(F)F)cc4)CC3)c2cc1OC [Compound 204, 4-(6,7-Dimethoxy-4-quinazolinyl)-N-(4-trifluoromethoxybenzyl)-1-piperazinethiocarboxamide]
 | 240 to 241 | COc1cc2ncnc(N3CCN(C(=O)Nc4ccc(C)nc4)CC3)c2cc1OC [Compound 271, 4-(6,7-Dimethoxy-4-quinazolinyl)-N-(2-methyl-5-pyridyl)-1-piperazinecarboxamide]
 | 190 to 192 | COc1cc2ncnc(N3CCN(C(=O)Nc4ccc(OC(F)F)cc4)CC3)c2cc1OC [Compound 158, N-(4-Difluoromethoxyphenyl)-4-(6,7-dimethoxy-4-quinazolinyl)-1-piperazinecarboxamide]
 | 104 to 105 | COc1cc2ncnc(N3CCN(C(=S)NCc4ccc(C(C)(C)C)cc4)CC3)c2cc1OC [Compound 157, N-(4-tert-Butylbenzyl)-4-(6,7-dimethoxy-4-quinazolinyl)-1-piperazinethiocarboxamide]
 | 208 to 209 | COC(=O)c1ccc(NC(=S)N2CCN(c3ncnc4cc(OC)c(OC)cc34)CC2)cc1 [Compound 249, 4-(6,7-Dimethoxy-4-quinazolinyl)-N-(4-methoxycarbonylphenyl)-1-piperazinethiocarboxamide]
 | 198 to 202 | COc1cc2ncnc(N3CCN(C(=O)Nc4ccc(F)cc4)CC3)c2cc1OC [Compound 36, 4-(6,7-Dimethoxy-4-quinazolinyl)-N-(4-fluorophenyl)-1-piperazinecarboxamide]
 | 202 to 204 | COc1cc2ncnc(N3CCN(C(=S)NCc4ccc(C)cc4)CC3)c2cc1OC [Compound 147, 4-(6,7-Dimethoxy-4-quinazolinyl)-N-(4-methylbenzyl)-1-piperazinethiocarboxamide]
 | 186 to 187 | COc1cc2ncnc(N3CCN(C(=O)Nc4ccccc4Cl)CC3)c2cc1OC [Compound 38, N-(2-Chlorophenyl)-4-(6,7-dimethoxy-4-quinazolinyl)-1-piperazinecarboxamide]
 | 176 to 177 | COc1cc2ncnc(N3CCN(C(=O)Nc4ccccc4F)CC3)c2cc1OC [Compound 34, 4-(6,7-Dimethoxy-4-quinazolinyl)-N-(2-fluorophenyl)-1-piperazinecarboxamide]
 | 165 to 166 | CCOc1ccc(NC(=O)N2CCN(c3ncnc4cc(OC)c(OC)cc34)CC2)cc1 [Compound 57, 4-(6,7-Dimethoxy-4-quinazolinyl)-N-(4-ethoxyphenyl)-1-piperazinecarboxamide]
 | 172 to 180 | COc1cc2ncnc(N3CCN(C(=S)Nc4ccc(S(N)(=O)=O)cc4)CC3)c2cc1OC [Compound 93, 4-(6,7-Dimethoxy-4-quinazolinyl)-N-(4-sulfamoylphenyl)-1-piperazinethiocarboxamide]
 | 221 to 223 | CCN(CC)c1ccc(NC(=O)N2CCN(c3ncnc4cc(OC)c(OC)cc34)CC2)cc1 [Compound 225, N-(4-Diethylaminophenyl)-4-(6,7-dimethoxy-4-quinazolinyl)-1-piperazinecarboxamide]
 | 198 to 199 | COc1cc2ncnc(N3CCN(C(=O)Nc4cc(OC)c(OC)c(OC)c4)CC3)c2cc1OC [Compound 212, 4-(6,7-Dimethoxy-4-quinazolinyl)-N-(3,4,5-trimethoxyphenyl)-1-piperazinecarboxamide]
 | 174 to 176 | COc1ccc(NC(=S)N2CCN(c3ncnc4cc(OC)c(OC)cc34)CC2)cc1OC [Compound 66, N-(3,4-Dimethoxyphenyl)-4-(6,7-dimethoxy-4-quinazolinyl)-1-piperazinethiocarboxamide]
